Molecules are shown by their SMILES.

These results are taken from US9340574B2, “Inhibitors of protein tyrosine phosphatases” (Indiana University Research and Technology Corporation, priority 2012, dated 2016).

Test [1] concerns insulin signaling in metabolic tissues of diet-induced obese mice. Briefly: Insulin signaling in liver, skeletal muscle and white adipose tissue of diet-induced obese mice (immunoblot). Type of test: in vivo, mouse. As to conditions: skeletal muscle, white adipose tissue, 2-week injections, insulin bolus. An excerpt:
To investigate the underlying mechanisms responsible for the improved insulin sensitivity in Compound 7 treated diet-induced obese mice, we analyzed key insulin signaling events in metabolically active tissues. Phosphorylation of Tyr1162/1163 residues in IR was stimulated 2-3 fold higher in the liver, skeletal muscle, and white adipose tissue in Compound 7 treated mice than that in control mice (FIGS. 5G & H). […] These biochemical data are consistent with the animal phenotype that Compound 7 can effectively improve insulin sensitivity in diet-induced obese mice. Our finding that chemical inhibition of PTP-MEG2 augments insulin signaling, insulin sensitivity and glucose homeostasis in insulin resistant mice is consistent with the observation that silencing of PTP-MEG2 in the livers of db/db mice results in a reversal of insulin resistance and hyperglycemia (Cho, et al., Cell Metab. 2006, 3, 367-378). Moreover, our in vivo data also serve as proof-of-concept and support the notion that specific inhibitors of PTP-MEG2 may be effective anti-diabetes agents.

Test [2] concerns the target VHX (Homo sapiens (Human), UniProt Q9NRW4). In words: pNPP hydrolysis enzyme assay, VHX. It counts as biochemical. The method, then:
(§1) Enzyme kinetic assay. PTP activity was assayed using p-nitrophenyl phosphate (pNPP) as a substrate in 3,3-dimethylglutarate buffer (50 mM 3,3-dimethylglutarate, pH 7.0, 1 mM EDTA, 150 mM NaCl, 2 mM DTT, 0.1 mg/mL BSA) at 25° C. The assays were performed in 96-well plates. Normally, to determine the IC50 values, the reaction was initiated by the addition of enzyme (final concentration at 10 nM) to a reaction mixture (0.2 mL) containing 2 mM (Km for the substrate) pNPP with various concentrations of inhibitors. The reaction rate was measured using a SpectraMax Plus 384 Microplate Spectrophotometer (Molecular Devices). To determine the mode of inhibition, the reactions were initiated by the addition of PTP-MEG2 to the reaction mixtures (0.2 mL) containing various concentrations of pNPP with different concentrations of the inhibitor 7. Data were fitted using SigmaPlot Enzyme Kinetics Module (Systat Software, Inc.).

Test [3] deals with PTP-PEST (Homo sapiens (Human), UniProt Q05209). Briefly: pNPP hydrolysis enzyme assay, PTP-PEST. Type of test: biochemical. On the procedure:
as §1

The target in test [4] is PTP-MEG2 (Homo sapiens (Human), UniProt P43378). Briefly: pNPP hydrolysis enzyme assay, PTP-MEG2. Type of test: biochemical. On the procedure:
as §1
PTP-MEG2 Overexpression, and Purification. The expression vector containing residues 277-582 of PTP-MEG2 catalytic domain was provided by Stefan Knapp at the University of Oxford. For protein expression, transformed cells were grown at 37° C. in Luria broth (LB) containing […] ampicillin for 4 h to an OD600 nm @0.6, and then induced for overnight at 18° C. with 0.4 mM IPTG. Cells were harvested by centrifugation (6500 rpm for 15 min at 4° C.), and the cell pellets from 1.5 L LB medium were suspended in 30 mL of ice-cold lysis buffer consisting of 5 mM imidazole, 500 mM NaCl, 20 mM Tris-HCl (pH 7.9), 0.05 mg/mL trypsin inhibitor and 0.1 mM PMSF. The suspensions were passed twice through a French Press at 1200 psi, and the cell lysates were centrifuged at 4° C. for 30 min at 16,000 rpm. The supernatants were mixed with 2 mL Ni-NTA Agarose (His*Bind Resin) (Qiagen) at 4° C. for 1 hour, then transferred mixture to an empty column. The column was washed by 200 mL binding buffer (5 mM imidazole, 500 mM NaCl, 20 mM Tris-HCl (pH 7.9)), followed by 20 mL wash buffer (20 mM imidazole, 500 mM NaCl, 20 mM Tris-HCl (pH 7.9)), and then eluted with 20 mL elution buffer (200 mM imidazole, 500 mM NaCl, 20 mM Tris-HCl (pH 7.9), 5 mM DTT). The elution was dialyzed for 6 h at 4° C. against 1 L buffer A (50 mM NaCl, 20 mM MES (pH6.0), 1 mM EDTA), and then loaded onto a Mono S column equilibrated at 4° C. with buffer A. The column was washed with 10 ml buffer A and then eluted with a 40 mL linear gradient of 0 to 1M NaCl in buffer A. The PTP-MEG2 was eluted at 0.35 M NaCl. The column fractions were analyzed by measuring the absorbance at 280 nm and by carrying out SDS-PAGE analysis. The fractions were combined, dialyzed against 1 L buffer A and concentrated at 4° C. to 8 mg/mL using an Amicon concentrator and then stored at −80° C.

Test [5] deals with HePTP (Homo sapiens (Human), UniProt P35236). In words: pNPP hydrolysis enzyme assay, HePTP. Type of test: biochemical. The method, then: as §1
Chain of HePTP (P35236 whole entry, species assumed): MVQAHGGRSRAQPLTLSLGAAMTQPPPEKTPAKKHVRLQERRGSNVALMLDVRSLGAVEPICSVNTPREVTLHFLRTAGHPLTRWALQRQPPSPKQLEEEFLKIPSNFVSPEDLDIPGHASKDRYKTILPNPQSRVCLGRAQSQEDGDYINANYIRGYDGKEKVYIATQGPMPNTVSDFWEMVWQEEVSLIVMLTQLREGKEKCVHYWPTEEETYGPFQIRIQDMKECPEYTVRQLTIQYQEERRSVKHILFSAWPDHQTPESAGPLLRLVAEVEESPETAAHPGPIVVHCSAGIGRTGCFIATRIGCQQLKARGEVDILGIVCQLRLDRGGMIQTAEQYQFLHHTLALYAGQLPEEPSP
Test [6] deals with SHP1 (Homo sapiens (Human), UniProt P29350). Briefly: pNPP hydrolysis enzyme assay, SHP1. Type of test: biochemical. The method, then: as §1
Chain of SHP1 (P29350 whole entry): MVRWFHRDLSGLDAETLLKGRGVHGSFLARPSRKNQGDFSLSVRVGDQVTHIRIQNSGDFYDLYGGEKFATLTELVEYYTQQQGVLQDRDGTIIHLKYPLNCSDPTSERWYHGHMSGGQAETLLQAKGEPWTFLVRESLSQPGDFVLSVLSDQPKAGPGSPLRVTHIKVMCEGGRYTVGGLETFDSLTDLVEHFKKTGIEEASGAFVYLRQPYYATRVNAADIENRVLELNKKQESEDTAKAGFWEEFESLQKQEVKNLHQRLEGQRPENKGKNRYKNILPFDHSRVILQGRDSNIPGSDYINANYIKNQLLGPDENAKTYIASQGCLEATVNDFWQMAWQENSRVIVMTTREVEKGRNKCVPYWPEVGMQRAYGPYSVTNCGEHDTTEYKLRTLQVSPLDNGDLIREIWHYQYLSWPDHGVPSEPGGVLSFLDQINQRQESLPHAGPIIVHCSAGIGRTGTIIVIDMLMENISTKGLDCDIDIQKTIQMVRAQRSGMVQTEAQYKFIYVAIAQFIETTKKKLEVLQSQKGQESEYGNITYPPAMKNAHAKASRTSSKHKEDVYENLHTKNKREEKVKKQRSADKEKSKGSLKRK
The subject of test [7] is HepG2 hepatocytes. Briefly: Insulin signaling in HepG2 hepatocytes. Type of test: cell-based. As to conditions: HepG2, 1 hour pretreatment, 10 nM insulin 30 min. On the procedure: Cell lysate (20 μg protein) was subjected to 10% SDS-PAGE and probed with phospho-Akt, phospho-IR (Y1162/1163) or Akt antibody, respectively. […] Cell lysate (20 μg protein) was subjected to 10% SDS-PAGE and probed with phospho-IR(Y1162/1163), phospho-Akt (pS473) or total Akt antibody, respectively. […] Cell lysate (20 μg protein) or insulin receptor immunoprecipitation beads were subjected to 10% SDS-PAGE and probed with phospho-Akt, Akt, insulin receptor beta or phospho-tyrosine antibody (4G10), respectively. The non-specific band from insulin receptor immunoprecipitates served as a loading control for insulin receptor and phospho-insulin receptor.
Western blot analysis. Cells were homogenized in the lysis buffer (50 mM Hepes, pH 7.5, 150 mM NaCl, 10% Glycerol, 1% Triton X-100, 1.5 mM MgCl2, 1 mM EGTA, 10 μM Sodium Pyrophosphate, 100 mM sodium fluoride and freshly added 100 μM sodium vanadate, 1 mM PMSF, 10 μg/ml Aprotinin, and 10 μg/mL Leupeptin). Protein extracts were resolved on an SDS-PAGE gel and transferred to nitrocellulose membrane. […] Protein signals were detected by incubation with HRP-conjugated secondary antibodies, followed by ECL detection reagent (Pierce). Western blots were scanned and quantified using the Quantity One software (Bio-Rad).

Test [8] deals with PTP-MEG1 (Homo sapiens (Human), UniProt P29074). Briefly: pNPP hydrolysis enzyme assay, PTP-MEG1. It counts as biochemical. The method, then:
as §1

Chain of PTP-MEG2 (P43378 277-582): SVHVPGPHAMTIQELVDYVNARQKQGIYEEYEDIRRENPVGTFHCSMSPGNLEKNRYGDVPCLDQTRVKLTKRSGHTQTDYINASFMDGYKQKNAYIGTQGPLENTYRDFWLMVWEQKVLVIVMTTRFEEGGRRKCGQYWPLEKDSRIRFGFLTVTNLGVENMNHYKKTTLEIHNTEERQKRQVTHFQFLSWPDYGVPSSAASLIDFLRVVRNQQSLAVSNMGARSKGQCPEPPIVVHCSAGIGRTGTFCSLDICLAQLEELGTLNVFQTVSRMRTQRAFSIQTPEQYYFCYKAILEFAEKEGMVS
Chain of VHX (Q9NRW4 whole entry): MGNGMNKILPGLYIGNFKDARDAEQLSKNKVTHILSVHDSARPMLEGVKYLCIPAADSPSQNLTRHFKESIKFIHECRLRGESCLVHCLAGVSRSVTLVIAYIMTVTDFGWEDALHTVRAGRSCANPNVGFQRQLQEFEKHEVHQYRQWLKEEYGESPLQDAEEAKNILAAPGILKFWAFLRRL
Chain of PTP-PEST (Q05209 whole entry, species assumed): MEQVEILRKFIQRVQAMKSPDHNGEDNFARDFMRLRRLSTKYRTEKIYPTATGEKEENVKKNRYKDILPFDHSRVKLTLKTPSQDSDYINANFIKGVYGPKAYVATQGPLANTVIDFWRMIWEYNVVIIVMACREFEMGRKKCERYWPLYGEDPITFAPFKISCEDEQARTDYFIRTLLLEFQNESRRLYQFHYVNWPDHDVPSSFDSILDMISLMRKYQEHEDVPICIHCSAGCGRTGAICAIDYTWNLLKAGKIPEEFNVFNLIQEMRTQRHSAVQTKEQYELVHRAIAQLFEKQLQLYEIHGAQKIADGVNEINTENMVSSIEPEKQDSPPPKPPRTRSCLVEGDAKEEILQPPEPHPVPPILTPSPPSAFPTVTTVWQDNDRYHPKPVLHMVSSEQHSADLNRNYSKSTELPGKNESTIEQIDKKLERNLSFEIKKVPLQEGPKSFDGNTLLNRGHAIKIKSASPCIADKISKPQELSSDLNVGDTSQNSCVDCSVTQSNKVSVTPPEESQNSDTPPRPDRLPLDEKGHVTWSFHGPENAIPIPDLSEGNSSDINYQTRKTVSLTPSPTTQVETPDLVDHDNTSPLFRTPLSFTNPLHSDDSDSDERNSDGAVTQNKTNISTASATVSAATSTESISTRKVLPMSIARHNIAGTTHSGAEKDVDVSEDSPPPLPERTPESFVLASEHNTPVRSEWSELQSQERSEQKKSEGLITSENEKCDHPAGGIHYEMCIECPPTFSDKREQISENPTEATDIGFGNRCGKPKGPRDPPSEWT
Chain of PTP-MEG1 (P29074 whole entry): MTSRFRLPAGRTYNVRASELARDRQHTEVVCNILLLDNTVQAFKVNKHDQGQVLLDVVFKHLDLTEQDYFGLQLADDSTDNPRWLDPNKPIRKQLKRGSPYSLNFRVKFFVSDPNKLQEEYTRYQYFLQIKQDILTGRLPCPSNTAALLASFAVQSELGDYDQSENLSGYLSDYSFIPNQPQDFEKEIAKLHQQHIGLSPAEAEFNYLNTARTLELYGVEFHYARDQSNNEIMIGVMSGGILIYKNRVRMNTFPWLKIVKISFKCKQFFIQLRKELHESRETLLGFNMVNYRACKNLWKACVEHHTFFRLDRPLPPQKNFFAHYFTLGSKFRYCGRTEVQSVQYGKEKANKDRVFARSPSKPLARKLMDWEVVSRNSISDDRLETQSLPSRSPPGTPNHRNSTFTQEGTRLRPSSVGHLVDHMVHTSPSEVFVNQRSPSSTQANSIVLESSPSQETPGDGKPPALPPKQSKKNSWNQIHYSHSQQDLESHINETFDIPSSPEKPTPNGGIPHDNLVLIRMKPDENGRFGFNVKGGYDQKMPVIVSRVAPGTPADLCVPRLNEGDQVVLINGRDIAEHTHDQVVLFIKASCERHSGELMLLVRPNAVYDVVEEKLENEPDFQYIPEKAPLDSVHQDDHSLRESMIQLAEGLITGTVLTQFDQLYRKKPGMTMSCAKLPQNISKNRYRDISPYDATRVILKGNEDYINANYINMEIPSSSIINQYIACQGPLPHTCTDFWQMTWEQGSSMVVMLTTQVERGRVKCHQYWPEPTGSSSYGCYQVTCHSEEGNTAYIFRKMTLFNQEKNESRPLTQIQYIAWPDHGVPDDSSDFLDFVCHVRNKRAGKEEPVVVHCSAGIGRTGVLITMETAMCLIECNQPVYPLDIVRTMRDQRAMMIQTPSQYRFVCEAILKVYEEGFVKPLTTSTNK

Turning to `COc1cc(CC(=O)NCC(NC(=O)C(CCCNC(=O)c2cccc(I)c2)NC(=O)C(Cc2ccc(C(F)(F)P(=O)(O)O)cc2)NC(=O)c2ccc(C)c(Br)c2)C(N)=O)ccc1O` (stereo not drawn) [Compound 7], in test [1], the “increase of Akt (Ser473) phosphorylation” value is 40-60%. Also, in test [1], the “phosphorylation of Tyr1162/1163 in IR, higher than control mice” value is 2-3 fold. For the same compound, the IC50 was over 10000 nM in test [2]; over 10000 nM in test [3]; 75 ± 10 nM in test [4] (pNPP substrate, read-out: IC50 (nM) PTP-MEG2); over 10000 nM in test [5]; over 10000 nM in test [6]; over 10000 nM in test [8]. Besides, the “improvement in potency / binding affinity for PTP-MEG2 over the preceding lead” value in test [4] (Compound 5 vs Compound 3, Compound 7 vs Compound 5) stood at 3.6 fold. The “mode of inhibition of PTP-MEG2” value in test [4] (kinetic analysis) was “reversible and competitive inhibitor”. In test [4] (kinetic analysis, Lineweaver-Burk), this compound gave a Ki of 0.034 ± 0.002 µM. In addition, in test [7], the “insulin signaling (phospho-IR, phospho-Akt)” value is recorded as “augmented insulin signaling”.
